From US20250213510A1, “Aqueous Composition” (TSUBOTA LABORATORY, Inc., priority 2022, published 2025)

Assays:
[1] = Stability of sodium 4-phenylbutyrate in multi-dose type containers (liquid chromatography); assay type: physicochemical; conditions: PE, PP, PET; 60° C., 1 week (Table 1-2)
Procedure: Each aqueous composition (formulations 1-0 to 1-4) shown in Table 1-1 was prepared through a usual method to fill 5-mL volume multi-dose type containers made of polyethylene (PE), polypropylene (PP), and polyethylene terephthalate (PET) by 5 mL each.
Liquid chromatography was used to quantify sodium 4-phenylbutyrate. 10 μL of 0.05 w/v % sodium 4-phenylbutyrate solution was used as a standard solution, and 10 μL of a formulation diluted 10 times with a mobile phase was used as a sample solution. The standard solution and the sample solution were each placed on a reverse-phase column (YMC-Pack ODS-A (I.D. 4.6 mm×150 mm, 5 μm) manufactured by YMC CO., LTD.) maintained at 30° C., and eluted with a 0.2% formic acid solution-acetonitrile mixture as a mobile phase. Detection was performed with an ultraviolet absorptiometer (measurement wavelength: 260 nm). Thereafter, the peak area of sodium 4-phenylbutyrate was measured for the standard solution and the sample solution, and the concentration of sodium 4-phenylbutyrate was determined for each formulation immediately after preparation and after storage at 60° C. for 1 week using Equation 1 below.

[2] = Stability of sodium 4-phenylbutyrate in unit-dose type containers (liquid chromatography); assay type: physicochemical; conditions: PE, COC/PE; 40° C., 1 month (Table 1-5)
Procedure: An aqueous composition (formulation 2-1) shown in Table 1-4 was prepared through a usual method to fill a 0.5-mL volume polyethylene (PE) unit-dose type container and a unit-dose type resin container made of a mixture of a cyclic olefin copolymer (COC) and polyethylene (PE) by 0.5 mL each.
Liquid chromatography was used to quantify sodium 4-phenylbutyrate. 20 μL of 0.02 w/v % sodium 4-phenylbutyrate solution was used as a standard solution, and 20 μL of a formulation 2-1 diluted 10 times with a mobile phase was used as a sample solution. The standard solution and the sample solution were each placed on a reverse-phase column (YMC-Pack ODS-A (I.D. 4.6 mm×150 mm, 5 μm) manufactured by YMC CO., LTD.) maintained at 30° C., and eluted with a 0.2% formic acid solution-acetonitrile mixture as a mobile phase. Detection was performed with an ultraviolet absorptiometer (measurement wavelength: 260 nm). Thereafter, the peak area of sodium 4-phenylbutyrate was measured for the standard solution and the sample solution, and the concentration of sodium 4-phenylbutyrate was determined for the formulation 2-1 immediately after preparation and after storage at 40° C. for 1 month using Equation 3 below.

O=C([O-])CCCc1ccccc1.[Na+] [sodium 4-phenylbutyrate, Sodium 4-phenylbutyrate]
Stability of sodium 4-phenylbutyrate itself among the container resins [1]: no difference in stability
Stability of sodium 4-phenylbutyrate itself among the container resins [2]: no difference in stability
